Laboratory results published in US20110003015A1, “STABILIZED COMPOSITION COMPRISING AT LEAST ONE ADRENERGIC COMPOUND” (ALK AG, priority 2009, published 2011).
Where two headings read alike, the source gives them in different places.

Legend:
[1] = Procedure: The formulation solutions were prepared at a level of 1.0 mg/ml adrenaline (in the form of the tartrate), pH 3.4 containing, 0.6% sodium chloride, with various molar ratios (0.25-0.59) of sodium metabisulfite added. The metabisulfite/adrenaline molar ratios tested were 0.25, 0.34, 0.42, 0.5 and 0.59, which correspond to sulfite/adrenaline ratios of 0.5, 0.68, 0.84, 1.0 and 1.18, respectively. For the ease of reference to the general description and claims of this specification, the said values correspond to a molar ratio of adrenaline to sulfite of 2.0, 1.47, 1.19, 1.0 and 0.85, respectively.
Each sample solution was split into two lots. For each sample solution, one lot was placed at the accelerated test temperature of 60° C., protected from light and the other lot placed in a photo-stability cabinet at 25° C. which provided 13400 lux visible light, 1.50 W.h/m^2 UV. Samples were pulled from both conditions at 0, 7, 14 and 28 days At each pull point, the appearance of the test solution was assessed, the pH measured and the adrenaline content measured together with impurities.

Remark: listed apart in the source
[2] = at the metabisulfite levels contemplated; 60° C.
Procedure: A 1.1 mg/ml solution of adrenaline (6.004×10^−3 M), in the form of the tartrate, pH 3.4 and containing 0.6% sodium chloride was used. A range of metabisulfite antioxidant concentrations, with and without admixture of 0.25% di-sodium edetate as chelating agent were tested. The metabisulfite/adrenaline molar ratios tested were 0.1, 0.2, 0.5, 1.0 and 1.5, which correspond to sulfite/adrenaline ratios of 0.2, 0.4, 1.0, 2.0 and 3.0, respectively. For the ease of reference to the general description and claims of this specification, the said values correspond to a molar ratio of adrenaline to sulfite of 5.0, 2.5, 1.0, 0.5 and 0.33, respectively.
The accelerated test temperature was 60° C., protected from light, and samples were pulled at 0, 7, 14, 21 and 28 days. At each pull point, the appearance of the test solution was assessed, the pH measured and the solution assayed for adrenaline content. The appearance of degradation products was noted as area %.
[adr]^+ relates to samples containing 0.025% di-sodium edetate, whereas [adr] relates to samples containing no chelating agent.

**Q.** What does the source list for `CNC[C@H](O)c1ccc(O)c(O)c1` [adrenaline, (R)-4-(1-hydroxy-2-(methylamino)ethyl)benzene-1,2-diol]?
**A.** molar ratio of metabisulfite to adrenaline in which stability of adrenaline is improved [1]: 0.25-0.59; optimum sulfite:adrenaline ratio ([1]; Examples 2 and 3 summarised, 60° C., FIGS. 8 and 9): about 1.0; first choice of metabisulfite content with respect to adrenaline ([1]; considering both thermal and photo stresses): half molar; best metabisulfite:adrenaline ratio on the basis of total impurities ([1]; heat stress 60° C.): 0.42; best metabisulfite:adrenaline ratio on the basis of total impurities ([1]; photo-stress, 25° C., 13400 lux visible light, 1.50 W.h/m^2 UV): 0.5; pH for maximum stability of epinephrine in solution: about 3.4

**Q.** With `O=C([O-])CN(CCN(CC(=O)[O-])CC(=O)O)CC(=O)O.[Na+].[Na+]` [di-sodium edetate] as the compound, how does the “advantage of using a chelating agent for adrenaline solution stability” value [2] read?
**A.** no advantage
